The record followed here is patent US20260174766A1, “COMBINATION OF MENIN INHIBITOR(S) AND IMMUNOPROTEASOME INHIBITOR(S) FOR TREATMENT OF LEUKEMIA” (Medizinische Hochschule Hannover, priority 2022, published 2026).

The subject of the assay is MLLr leukemic cells (MLL-AF9 and MLL-AF4 PDX). The assay is described as follows: Patient derived xenografts (MLL-AF9, MLL-AF4) in NSGW41 mice treated with PR-957. In kind it is in vivo, mouse. An excerpt: NOD.Cg-Prkdc^scid Il2rg^tm1Wjl Tg(CMV-IL3, CSF2, KITLG) 1Eav/MloySzJ (NSGS), NOD.Cg-Prkdc^scid Il2rg^tm1Wjl/SzJ (NSG) or NOD.Cg-Prkdc^scid Il2rg^tm1Wjl/RJ (NXG) were obtained from The Jackson Laboratory (Bar Harbor, ME, USA). 8-12-weeks old adult mice (male and female) were irradiated with 2 Gy (single dose) before transplantation. 1×10^5 MOLM-13, ML-2 or MV-4; 11 cells transduced with either of two PSMB8/LMP7 shRNAs or non-targeting control; with a pLEX vector containing the sequence of BASP1 or an empty vector; or treated ex vivo with the indicated inhibitors were injected intravenously via the tail vein. For patient derived xenograft experiments (PDX) of human MLLr leukemia we used an improved model for human HSC transplantation and analysis, that has been developed from immune-deficient mouse strains containing Kit mutations: NOD.Cg-^KitW-41J Prkdc^scid Il2rg^tm1Wjl/WaskJ (NSGW41) (Cosgun et al., 2014). These mice can be engrafted without prior conditioning and therefore maintain an intact niche and microenvironment. Human myeloid engraftment (hCD45+ CD13+) was analyzed by flow cytometry.
In order to assess for the functional relevance of immunoproteasome component LMP7/PSMB8 in human AML, genetic inactivation of LMP7/PSMB8 by RNAi was performed with two independent shRNAs against LMP7/PSMB8 (shPSMB8-3 and shPSMB8-2) compared to non-targeting control (shNT) in MLLr cell lines. […] However, induction of apoptosis could only be detected in less than 40% of cells with no significant variability between MLLr cell lines and the individual shRNAs. Efficient LMP7/PSMB8 depletion was confirmed by Western blotting (FIG. 1E). […] Following xenotransplantation, the relative abundance of human AML cells in the murine peripheral blood was measured over time by flow cytometry, and PR-957 treatment was initiated once hCD45+ AML cells constituted 0.1%-0.5% of PB cells. […]

Take `COc1ccc(C[C@H](NC(=O)[C@H](C)NC(=O)CN2CCOCC2)C(=O)N[C@@H](Cc2ccccc2)C(=O)[C@]2(C)CO2)cc1` [PR-957, (2S)-3-(4-methoxyphenyl)-N-[(2S)-1-[(2S)-2-methyloxiran-2-yl]-1-oxo-3-phenylpropan-2-yl]-2-[[(2S)-2-[(2-morpholin-4-ylacetyl)amino]propanoyl]amino]propanamide]: the “antileukemic activity in PDX models” value (3 mg/KG i.v. 5 consecutive days, every 2 weeks, escalated to 6 and 10 mg/KG, NSGW41 mice) is “potent antileukemic activity”. Besides, for the setting “PDX after onset of AML, FIG. 1K”, the “cell morphology of AML cells (cytospin analysis)” value was “signs of cellular differentiation”. For the same compound, under “over a period of 100 days, FIG. 1J”, the “survival and disease penetrance in PDX” value was “improved survival and reduced disease penetrance”.
